Each structure is given as a SMILES string. Bounds are passed on as bounds.

One assay deals with c-Myc template DNA (c-myc quadruplex). Kind of assay: Quadruplex binding / stop assay (Taq polymerase arrest, capillary electrophoresis). The following applies: read-out: S DATA; Table 1D, stop assay data.
As to `CC(C)(C)OC(=O)NC1CCN(c2ccc3c(=O)c(C(=O)NCCCN4CCOCC4)cn4c3c2Oc2cc3ccccc3cc2-4)C1` (centres unmarked) [compound 1536], the IC50 is above 15 µM.
As to `CN1CCN(CCCNc2c(F)cc3c(=O)c(C(=O)NCCCN4CCOCC4)cn4c3c2Oc2ccccc2-4)CC1` [compound 1572], the IC50 is above 15 µM.
On the same count and under the same terms, with `CC(C)(C)OC(=O)NC1CCN(C(=O)c2cn3c4c(c(N5CCC(NC(=O)OC(C)(C)C)C5)c(F)cc4c2=O)Oc2ccccc2-3)C1` (centres unmarked) [compound 1586] the figure was above 15 µM; with `CC(C)N1CCN(c2c(F)cc3c(=O)c(C(=O)NCCN4CCCC4)cn4c3c2Oc2ccccc2-4)CC1` [compound 1566], above 15 µM; with `CC(C)CC(CO)Nc1c(F)cc2c(=O)c(C(=O)NCCC3CCCN3C)cn3c2c1Oc1cc2ccccc2cc1-3` (centres unmarked) [compound 1743], above 15 µM.
The same measure, in the same setting: with `CCc1ccc(CCNc2c(F)cc3c(=O)c(C(=O)NCCC4CCCN4C)cn4c3c2Oc2cc3ccccc3cc2-4)cc1OC` (centres unmarked) [compound 1679] the figure was 0.69 µM; with `COc1cccc(CCNC(=O)c2cn3c4c(c(N5CCC(N)C5)c(F)cc4c2=O)Oc2cc4ccccc4cc2-3)c1OC` (centres unmarked) [compound 1702], above 15 µM; with `CC(CNC(=O)c1cn2c3c(c(N4CCC(N)C4)c(F)cc3c1=O)Oc1cc3ccccc3cc1-2)c1ccccc1` (centres unmarked) [compound 1695], above 15 µM.
As to `CC(C)N1CCN(c2c(F)cc3c(=O)c(C(=O)NCCCN4CCOCC4)cn4c3c2Oc2ccc(Cl)cc2-4)CC1` [compound 1791], the IC50 was above 15 µM.
Still for that read-out and setting: the value for `CN1CCCC1CCNC(=O)c1cn2c3c(c(NCCCNC(=O)OC(C)(C)C)c(F)cc3c1=O)Oc1cc(Cl)ccc1-2` (centres unmarked) [compound 1808] was above 15 µM; that for `O=C(NCCN1CCCC1)c1cn2c3c(c(NCC4CCCO4)c(F)cc3c1=O)Oc1ccc(Cl)cc1-2` (centres unmarked) [compound 1799] was above 15 µM; that for `NC1CCN(c2c(F)cc3c(=O)c(C(=O)NCCCN4CCOCC4)cn4c3c2Oc2ccccc2-4)C1` (centres unmarked) [compound 1619] was above 15 µM.
The same measure, in the same setting: the value for `CN1CCCC1CCNC(=O)c1cn2c3c(c(N4CCC(c5cccnc5)C4)c(F)cc3c1=O)Oc1cc3ccccc3cc1-2` (centres unmarked) [compound 1508] was 0.75 µM.
Same read-out and setting: the value for `CC(C)N1CCN(c2c(F)cc3c(=O)c(C(=O)N4CCC(N5CCCC5)CC4)cn4c3c2Oc2ccccc2-4)CC1` [compound 1569] was above 15 µM.
For the compound `CC(C)N1CCN(c2c(F)cc3c(=O)c(C(=O)NCCCN4CCOCC4)cn4c3c2Oc2cc(Cl)ccc2-4)CC1` [compound 1792], the IC50 is above 15 µM.
Still for that read-out and setting: the value for `CC(C)(C)OC(=O)NC1CCN(C(=O)c2cn3c4c(c(NCCN5CCCC5)c(F)cc4c2=O)Oc2ccccc2-3)C1` (centres unmarked) [compound 1595] was above 15 µM; that for `CN1CCCC1CCNc1ccc2c(=O)c(C(=O)NCCN3CCOCC3)cn3c2c1Oc1cc2ccccc2cc1-3` (centres unmarked) [compound 1527] was 1.75 µM; that for `O=C(NCCN1CCCC1)c1cn2c3c(c(NCCN4CCOCC4)c(F)cc3c1=O)Oc1cc(Cl)ccc1-2` [compound 1814] was 7.2 µM.
Still for that read-out and setting: the value for `CCCCN1CCC(CNc2c(F)cc3c(=O)c(C(=O)NCCC4CCCN4C)cn4c3c2Oc2cc3ccccc3cc2-4)CC1` (centres unmarked) [compound 1691] was 1 µM.
As for `CCOC(=O)c1cn2c3c(c(N4CCC(c5cnccn5)C4)c(F)cc3c1=O)Oc1ccc(C#N)cc1-2` (centres unmarked) [compound 1775], the IC50 is above 15 µM.
On the same count and under the same terms, the value for `CCOC(=O)c1cn2c3c(c(N4CCN(C(C)=O)CC4)c(F)cc3c1=O)Oc1cc(Cl)ccc1-2` [compound 1806] was above 15 µM.
Same read-out and setting: the value for `O=C(NCCN1CCCC1)c1cn2c3c(c(N4CC5CCCNC5C4)c(F)cc3c1=O)Oc1ccccc1-2` (centres unmarked) [compound 1728] was above 15 µM.
`CN(C)CCCCNC(=O)c1cn2c3c(c(NCCC4CCCN4C)ccc3c1=O)Oc1cc3ccccc3cc1-2` (centres unmarked) [compound 1526]: the IC50 stood at 0.75 µM.

Still in this assay, the particulars now being: read-out: Stop Data c-Myc μM; concentration at which 50% of the DNA was arrested (arrested:full-length 1:1).
With `CN(CCc1ccccn1)C(=O)c1cn2c3c(c(N4CC[C@@H](N)C4)c(F)cc3c1=O)Oc1c-2ccc2ccccc12` [compound 80], the IC50 worked out at 2.5 µM.
Same read-out and setting: the value for `CN1CCN(CCCNC(=O)c2cn3c4c(c(NCCN5CCOCC5)c(F)cc4c2=O)Oc2cc4c(cc2-3)oc2ccccc24)CC1` [compound 146] was 1.75 µM.
Same read-out and setting: the value for `CN1CCN(CCCNc2c(F)cc3c(=O)c(C(=O)O)cn4c3c2Oc2cc3ccccc3cc2-4)CC1` [compound 398] was 0.75 µM; that for `CN(C)CCCCNC(=O)c1cn2c3c(c(NCCCN4CCN(C)CC4)c(F)cc3c1=O)Oc1cc3ccccc3cc1-2` [compound 396] was 0.75 µM.
With `CN(C)c1cccc(CNc2c(F)cc3c(=O)c(C(=O)NCCC4CCCN4C)cn4c3c2Oc2cc3ccccc3cc2-4)c1` (centres unmarked) [compound 464], the IC50 was found to be 0.75 µM.
On the same count and under the same terms, with `CN(C)CCCCNC(=O)c1cn2c3cc4oc5cc([N+](=O)[O-])ccc5[nH]c4cc3oc3c(NCCCCN(C)C)c(F)cc(c1=O)c32` [compound 587] the figure was 0.18 µM.
Same read-out and setting: the value for `CN(C)c1ccc(NC(=O)c2cn3c4c(c(N5CC[C@@H](N)C5)c(F)cc4c2=O)Oc2c-3ccc3ccccc23)cc1` [compound 82] was 2.5 µM.
On to `CN1CCCC1CCNC(=O)c1cn2c3c(c(NCCN4CCOCC4)c(F)cc3c1=O)Oc1cc3ccccc3cc1-2` (centres unmarked) [compound 57], for which the IC50 is 2.5 µM.
Same read-out and setting: with `CN(C)CCCCNC(=O)c1cn2c3c(c(NCCC4CCCN4C)c(F)cc3c1=O)Oc1c-2ccc2ccccc12` (centres unmarked) [compound 550] the figure was 0.375 µM; with `O=C(c1cn2c3c(c(NCC4CCNCC4)c(F)cc3c1=O)Oc1cc3ccccc3cc1-2)N1CCOCC1` [compound 44], 2.5 µM; with `CN(C)CCCCNC(=O)c1cn2c3c(c(NCCCCN(C)C)c(F)cc3c1=O)Oc1c-2ccc2ccccc12` [compound 470], 0.64 µM.
The same measure, in the same setting: with `CN1CCCC1CCNc1c(F)cc2c(=O)c(C(=O)N3CCC(N)C3)cn3c4cc5c(=O)c6ccccc6c(=O)c5cc4oc1c23` (centres unmarked) [compound 93] the figure was 2.5 µM; with `CN(C)CCCCNC(=O)c1cn2c3cc4c(cc3oc3c(NCCC5CCCN5C)c(F)cc(c1=O)c32)c(=O)c1ccccc14` (centres unmarked) [compound 423], 0.75 µM; with `CC(C)(C)OC(=O)NC1CCN(c2c(F)cc3c(=O)c(C(=O)NCCc4cnc[nH]4)cn4c3c2Oc2cc3ccccc3cc2-4)C1` (centres unmarked) [compound 181], 1.75 µM.
Still for that read-out and setting: the value for `CN1CCC(N(C)C(=O)c2cn3c4c(c(N5CCC(N)C5)c(F)cc4c2=O)Oc2cc4ccccc4cc2-3)CC1` (centres unmarked) [compound 198] was 1.75 µM; that for `CC1(C)CC(NC(=O)c2cn3c4c(c(N5CCC(NC(=O)OC(C)(C)C)C5)c(F)cc4c2=O)Oc2cc4ccccc4cc2-3)CC(C)(C)N1` (centres unmarked) [compound 182] was 1.75 µM.
For `CN1CCCC1CCNC(=O)c1cn2c3cc4c(cc3oc3c(N5CC[C@H](NC(=O)OC(C)(C)C)C5)c(F)cc(c1=O)c32)c(=O)c1ccccc14` (some centres unmarked) [compound 421], the IC50 stood at 0.75 µM.
`O=C(NCCCN1CCOCC1)c1cn2c3cc4c(=O)c5ccccc5c(=O)c4cc3oc3c(NCCCN4CCOCC4)c(F)cc(c1=O)c32` [compound 166]: the IC50 was found to be 1.75 µM.
On to `CN1CCCC1CCNC(=O)c1cn2c3c(c(N4CCC(C(N)=O)CC4)c(F)cc3c1=O)Oc1cc3ccccc3cc1-2` (centres unmarked) [compound 261], for which the IC50 came out at 1.75 µM.
Same read-out and setting: with `CN(C)CCCNC(=O)c1cn2c3c(c(N4CCC(NC(=O)OC(C)(C)C)C4)c(F)cc3c1=O)Oc1cc3ccccc3cc1-2` (centres unmarked) [compound 242] the figure was 1.75 µM.
In the case of `CN1CCCC1CCNC(=O)c1cn2c3c(c(NC4CCN(Cc5ccccc5)CC4)c(F)cc3c1=O)Oc1cc3ccccc3cc1-2` (centres unmarked) [compound 258], the IC50 worked out at 1.75 µM.
Still for that read-out and setting: the value for `CN(C)CCCCNC(=O)c1cn2c3c(c(N4CC[C@@H](NC(=O)CCN5CCOCC5)C4)c(F)cc3c1=O)Oc1cc3c(cc1-2)oc1ccccc13` [compound 176] was 1.75 µM; that for `CN1CCCC1CCNc1ccc2c(=O)c(C(=O)NCCN3CCOCC3)cn3c2c1Oc1cc2ccccc2cc1-3` (centres unmarked) [compound 271] was 1.75 µM; that for `O=C(NCCN1CCCC1)c1cn2c3cc4c(cc3oc3c(NCCN5CCOCC5)c(F)cc(c1=O)c32)c(=O)c1ccccc14` [compound 419] was 0.75 µM.
Turning to `NC1CCN(c2c(F)cc3c(=O)c(C(=O)NCc4ccccc4N4CCCCC4)cn4c3c2Oc2cc3ccccc3cc2-4)C1` (centres unmarked) [compound 247], the IC50 worked out at 1.75 µM.
In the case of `O=C(NCCN1CCCC1)c1cn2c3c(c(N4CCC(c5cnccn5)C4)c(F)cc3c1=O)Oc1cc3ccccc3cc1-2` (centres unmarked) [compound 462], the IC50 is 0.75 µM.
Same read-out and setting: the value for `CC1CCN(CCCNc2c(F)cc3c(=O)c(C(=O)NCCC4CCCN4C)cn4c3c2Oc2cc3ccccc3cc2-4)CC1` (centres unmarked) [compound 438] was 0.75 µM.
Turning to `CN(C)CCCCNC(=O)c1cn2c3c(c(N4CC[C@@H](N)C4)c(F)cc3c1=O)Oc1c-2ccc2ccccc12` [compound 156], the IC50 was determined as 1.75 µM.
The same measure, in the same setting: the value for `CN1CCCC1CCNC(=O)c1cn2c3c(c(NC(=O)CCN4CCCC4)c(F)cc3c1=O)Oc1cc3ccccc3cc1-2` (centres unmarked) [compound 89] was 2.5 µM; that for `CN1CCN(CCCNc2ccc3c(=O)c(C(=O)NCCCN4CCOCC4)cn4c3c2Oc2cc3ccccc3cc2-4)CC1` [compound 278] was 1.75 µM.
On the same count and under the same terms, the value for `CCCCN1CCC(CNc2c(F)cc3c(=O)c(C(=O)NCCC4CCCN4C)cn4c3c2Oc2cc3ccccc3cc2-4)CC1` (centres unmarked) [compound 336] was 1 µM; that for `CC1CCCCN1CCCNc1c(F)cc2c(=O)c(C(=O)NCCC3CCCN3C)cn3c2c1Oc1cc2ccccc2cc1-3` (centres unmarked) [compound 259] was 1.75 µM; that for `CN1CCCC1CCNC(=O)c1cn2c3cc4c(cc3oc3c(NCCCN5CCOCC5)c(F)cc(c1=O)c32)c(=O)c1ccccc14` (centres unmarked) [compound 420] was 0.75 µM.
Same read-out and setting: the value for `Cc1ncn(C(=O)c2cn3c4c(c(N5CCC(N)C5)c(F)cc4c2=O)Oc2cc4ccccc4cc2-3)c1CO` (centres unmarked) [compound 199] was 1.75 µM.
Consider `COc1ccc(OC)c(CCNc2c(F)cc3c(=O)c(C(=O)NCCC4CCCN4C)cn4c3c2Oc2cc3ccccc3cc2-4)c1` (centres unmarked) [compound 291], for which the IC50 amounted to 1.75 µM.
Still for that read-out and setting: the value for `CN(C)CCCCNc1c(F)cc2c(=O)c(C(=O)N3CCC(N)C3)cn3c4cc5c(=O)c6ccccc6c(=O)c5cc4oc1c23` (centres unmarked) [compound 96] was 2.5 µM.

These data come from patent US7507727B2, “Substituted quinobenzoxazine analogs and methods of using thereof” (Cylene Pharmaceuticals, Inc., priority 2003, dated 2009).
